Test results taken from ChEMBL document CHEMBL2057072, “Design, synthesis, and pharmacological evaluation of novel tetrahydroprotoberberine derivatives: selective inhibitors of dopamine D₁ receptor” (Bioorg Med Chem, 2012).

Assays:
[1] = target: 5-hydroxytryptamine receptor 2A (Homo sapiens) (UniProt P28223); assay: Displacement of [3H]Ketanserin from human 5HT2A receptor expressed in HEK293 cells at 10 uM; type: cell-based
[2] = target: T1, 5-hydroxytryptamine receptor 1A (Homo sapiens) (UniProt P08908); assay: Displacement of [3H]-8-OH-DPAT from human 5HT1A receptor expressed in HEK293 cells at 10 uM; type: cell-based
T1 sequence (whole entry): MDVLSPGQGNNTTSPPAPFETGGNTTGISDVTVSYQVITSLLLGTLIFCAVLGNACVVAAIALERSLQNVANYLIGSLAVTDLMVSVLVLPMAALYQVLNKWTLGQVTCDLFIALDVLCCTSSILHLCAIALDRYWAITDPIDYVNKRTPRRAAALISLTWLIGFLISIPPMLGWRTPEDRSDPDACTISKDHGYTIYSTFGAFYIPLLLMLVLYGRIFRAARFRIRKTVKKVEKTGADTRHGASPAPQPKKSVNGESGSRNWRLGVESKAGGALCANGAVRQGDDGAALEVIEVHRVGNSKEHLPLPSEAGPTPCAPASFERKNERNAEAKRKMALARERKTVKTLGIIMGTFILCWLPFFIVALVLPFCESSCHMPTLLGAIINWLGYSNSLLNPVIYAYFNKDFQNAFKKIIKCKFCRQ

D(1A) dopamine receptor [3] = target: T2, D(1A) dopamine receptor (Homo sapiens, UniProt P21728); assay: Antagonist activity at dopamine D1 receptor assessed as inhibition of [35S]GTPgammaS binding in cell-based assay relative to control; type: functional
T2 sequence (P21728 whole entry): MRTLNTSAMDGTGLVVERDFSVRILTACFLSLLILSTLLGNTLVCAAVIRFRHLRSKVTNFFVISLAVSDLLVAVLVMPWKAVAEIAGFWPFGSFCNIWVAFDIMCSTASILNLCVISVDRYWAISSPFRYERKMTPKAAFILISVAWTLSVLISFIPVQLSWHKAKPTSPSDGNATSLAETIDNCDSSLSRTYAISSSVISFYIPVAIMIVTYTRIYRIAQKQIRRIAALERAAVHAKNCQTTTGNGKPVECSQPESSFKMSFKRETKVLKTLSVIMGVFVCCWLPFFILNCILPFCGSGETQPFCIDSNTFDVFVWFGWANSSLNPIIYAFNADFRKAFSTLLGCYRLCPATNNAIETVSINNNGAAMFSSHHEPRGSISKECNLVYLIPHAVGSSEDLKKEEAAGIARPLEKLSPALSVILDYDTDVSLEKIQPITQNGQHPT

D(2) dopamine receptor [4] = target: T3, D(2) dopamine receptor (Homo sapiens, UniProt P14416); assay: Displacement of [3H]Spiprone from human dopamine D2 receptor expressed in HEK293 cells at 10 uM; type: cell-based
T3 sequence (P14416 whole entry): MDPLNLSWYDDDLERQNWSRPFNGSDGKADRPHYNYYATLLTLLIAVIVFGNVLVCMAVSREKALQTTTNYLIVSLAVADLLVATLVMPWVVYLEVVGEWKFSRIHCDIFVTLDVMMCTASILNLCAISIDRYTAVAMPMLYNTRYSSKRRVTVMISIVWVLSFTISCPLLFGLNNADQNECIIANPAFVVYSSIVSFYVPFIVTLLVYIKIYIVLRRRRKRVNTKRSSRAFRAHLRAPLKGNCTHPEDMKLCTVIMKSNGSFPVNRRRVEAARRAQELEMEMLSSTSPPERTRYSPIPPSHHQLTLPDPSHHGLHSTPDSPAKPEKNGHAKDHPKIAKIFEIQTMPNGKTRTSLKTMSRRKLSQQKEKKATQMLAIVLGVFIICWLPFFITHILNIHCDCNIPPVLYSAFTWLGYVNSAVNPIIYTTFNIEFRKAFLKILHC

D(1A) dopamine receptor [5] = target: T2, D(1A) dopamine receptor; assay: Antagonist activity at dopamine D1 receptor assessed as inhibition of [35S]GTPgammaS binding in cell-based assay; type: functional
D(1A) dopamine receptor [6] = target: T2, D(1A) dopamine receptor; assay: Displacement of [3H]SCH23390 from human dopamine D1 receptor expressed in HEK293 cells; type: cell-based
D(1A) dopamine receptor [7] = target: T2, D(1A) dopamine receptor; assay: Displacement of [3H]SCH23390 from human dopamine D1 receptor expressed in HEK293 cells at 10 uM; type: cell-based
[8] = target: T4, 5-hydroxytryptamine receptor 1A (Homo sapiens, UniProt P08908); assay: Displacement of [3H]-8-OH-DPAT from human 5HT1A receptor expressed in HEK293 cells; type: cell-based
T4 sequence (P08908 whole entry): T1 sequence (whole entry)

D(2) dopamine receptor [9] = target: T3, D(2) dopamine receptor; assay: Displacement of [3H]Spiprone from human dopamine D2 receptor expressed in HEK293 cells; type: cell-based
D(1A) dopamine receptor [10] = target: D(1A) dopamine receptor (Rattus norvegicus, UniProt P18901); assay: Agonist activity at D1 receptor in rat striatum assessed as synaptosomal adenylate cyclase activity; type: functional, tissue-based
Chain of D(1A) dopamine receptor (Rattus norvegicus, UniProt P18901) (P18901 whole entry): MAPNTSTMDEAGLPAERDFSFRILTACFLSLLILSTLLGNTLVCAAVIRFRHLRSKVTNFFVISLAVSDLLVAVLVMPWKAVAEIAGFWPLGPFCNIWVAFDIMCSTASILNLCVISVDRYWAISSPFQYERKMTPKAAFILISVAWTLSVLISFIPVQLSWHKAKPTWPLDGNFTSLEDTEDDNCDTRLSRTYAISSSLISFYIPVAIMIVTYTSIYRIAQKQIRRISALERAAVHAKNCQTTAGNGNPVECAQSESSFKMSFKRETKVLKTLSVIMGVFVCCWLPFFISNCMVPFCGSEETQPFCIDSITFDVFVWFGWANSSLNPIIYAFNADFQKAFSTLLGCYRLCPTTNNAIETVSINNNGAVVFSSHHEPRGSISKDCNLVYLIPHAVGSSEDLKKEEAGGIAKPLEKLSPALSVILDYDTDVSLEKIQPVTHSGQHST

D(1A) dopamine receptor [11] = target: T2, D(1A) dopamine receptor; assay: Agonist activity at dopamine D1 receptor assessed as [35S]GTPgammaS binding in cell-based assay relative to control; type: functional

Chain of 5-hydroxytryptamine receptor 2A (Homo sapiens) (P28223 whole entry): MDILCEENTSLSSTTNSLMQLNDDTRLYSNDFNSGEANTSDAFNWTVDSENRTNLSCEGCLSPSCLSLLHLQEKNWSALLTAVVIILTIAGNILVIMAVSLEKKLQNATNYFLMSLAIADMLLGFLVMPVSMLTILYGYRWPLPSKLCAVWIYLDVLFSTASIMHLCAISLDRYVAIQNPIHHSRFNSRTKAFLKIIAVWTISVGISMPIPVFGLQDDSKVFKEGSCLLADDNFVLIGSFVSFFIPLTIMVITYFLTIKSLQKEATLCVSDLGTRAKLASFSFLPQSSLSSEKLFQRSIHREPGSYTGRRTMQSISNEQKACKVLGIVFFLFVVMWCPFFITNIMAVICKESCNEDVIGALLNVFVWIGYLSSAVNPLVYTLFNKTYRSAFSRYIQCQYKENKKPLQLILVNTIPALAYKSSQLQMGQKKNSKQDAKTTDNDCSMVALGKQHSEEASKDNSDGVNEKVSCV

inhibition [1] | inhibition [2] | Imax (D(1A) dopamine receptor [3]) | inhibition (D(2) dopamine receptor [4]) | IC50 (D(1A) dopamine receptor [5]) | IC50 (D(1A) dopamine receptor [6]) | Ki (D(1A) dopamine receptor [6]) | inhibition (D(1A) dopamine receptor [7]) | Ki [8] | IC50 (D(2) dopamine receptor [9]) | Ki (D(2) dopamine receptor [9]) | EC50 (D(1A) dopamine receptor [10]) | Emax (D(1A) dopamine receptor [11]) | Compound
48.8% | 66.9% | 82.5% | 51.7% | 11800 nM | 45.4 nM | 23.8 nM | – | – | – | – | – | – | COc1cc2c(c(OC)c1)CN1CCc3cc(OC)c(OC)c(OC)c3[C@@H]1C2
25% | 61.7% | 94.2% | 81.9% | 23300 nM | 14.3 nM | 7.97 nM | – | – | – | – | – | – | COc1cc2c(c(OC)c1)CN1CCc3cc(OC)cc(OC)c3[C@@H]1C2
21.4% | 1.34% | – | – | – | – | – | 56% | – | – | – | – | – | COc1ccc2c(c1)C[C@H]1c3c(OC)cc(OC)c(CO)c3CCN1C2
31.3% | 57.6% | – | 1.02% | – | 142 nM | 74.5 nM | – | – | – | – | – | – | COc1cc2c(c(OC)c1)CN1CCc3cc4c(cc3[C@@H]1C2)OCO4
19.9% | 28.4% | – | 77.4% | – | 2920 nM | 1440 nM | – | – | – | – | – | – | COc1cc2c(cc1OC)C1Cc3cc(C)cc(C)c3CN1CC2 (racemic)
56.2% | – | – | 41.8% | – | 324 nM | 182 nM | – | 600 nM | – | – | – | – | COc1cc(OC)c2c(c1CO)C[C@H]1c3cc4c(cc3CCN1C2)OCO4
20.8% | 5.48% | – | 22.7% | – | – | – | 83.2% | – | – | – | – | – | COc1ccc2c(c1)C[C@H]1c3cc4c(cc3CCN1C2)OCO4
72.7% | 70.3% | – | 70.7% | – | – | – | 43.4% | – | – | – | – | – | COc1cc2c(c(OC)c1OC)[C@@H]1Cc3cc4c(cc3CN1CC2)OCO4
25.3% | 33.1% | – | – | – | – | – | 48.8% | – | – | – | – | – | COc1ccc(OC)c2c1C[C@H]1c3c(OC)cc(OC)c(CO)c3CCN1C2
18.4% | 80.9% | – | – | – | 30.7 nM | 17.3 nM | – | – | 514 nM | 147 nM | – | – | COc1cc2c(cc1O)[C@@H]1Cc3c(CO)c(OC)cc(OC)c3CN1CC2
33.5% | 57.4% | – | 10.2% | – | – | – | 81.9% | – | – | – | – | – | COc1ccc2c(c1)C[C@H]1c3cc(OC)c(OC)cc3CCN1C2
59.7% | 67.4% | – | 47.2% | – | – | – | 7.37% | – | – | – | – | – | COc1cc(OC)c2c(c1CO)C[C@H]1c3c(cc(OC)c(OC)c3OC)CCN1C2
– | – | 80% | – | – | – | – | – | – | – | – | – | – | CN1CCc2cc(Cl)c(O)cc2[C@@H](c2ccccc2)C1
45.6% | 89.3% | – | – | – | 12.3 nM | 6.23 nM | – | – | 105 nM | 56.2 nM | 41100 nM | – | COc1cc2c(cc1O)[C@@H]1Cc3ccc(O)c(OC)c3CN1CC2 [STEPHOLIDINE]
36.5% | 54.8% | – | – | – | 684 nM | 338 nM | – | – | 1160 nM | 224 nM | – | – | COc1cc2c(cc1OC)[C@@H]1Cc3cc(C)cc(C)c3CN1CC2
51.6% | 44.9% | – | 58.8% | – | 98.1 nM | 52.3 nM | – | – | – | – | – | – | COc1cc2c(c(OC)c1)CN1CCc3cc(OC)c(O)c(OC)c3[C@@H]1C2
16.9% | – | – | – | – | – | – | 17.4% | – | – | – | – | – | COc1cc(OC)c2c(c1CO)CCN1Cc3cc4c(cc3C[C@@H]21)OCO4
17.2% | 66.9% | – | 3.48% | – | 189 nM | 106 nM | – | – | – | – | – | – | COc1cc2c(c(OC)c1)CN1CCc3cc(OC)c(OC)cc3[C@@H]1C2
27.1% | 74.5% | – | – | – | 56.4 nM | 28.9 nM | – | – | 456 nM | 161 nM | – | – | COc1cc2c(cc1O)[C@@H]1Cc3cc(C)cc(C)c3CN1CC2
68.7% | 65.6% | – | – | – | 68.9 nM | 35.8 nM | – | – | 873 nM | 347 nM | – | – | COc1ccc2c(c1)C[C@H]1c3cc(O)c(OC)cc3CCN1C2
69.1% | 43.7% | – | 54.2% | – | – | – | 59.3% | – | – | – | – | – | COc1cc2c(c(OC)c1)CN1CCc3cc(OC)c(OCc4ccccc4)c(OC)c3[C@@H]1C2
– | – | – | – | – | – | – | – | – | – | – | – | 100% | Oc1cc2c(cc1O)C(c1ccccc1)CNCC2 (stereo not given)
13.5% | 37.3% | – | 36% | – | – | – | 86% | – | – | – | – | – | COc1ccc2c(c1)C[C@H]1c3cc(OCc4ccccc4)c(OC)cc3CCN1C2
24.1% | – | – | 39.5% | – | 114 nM | 64.1 nM | – | 730 nM | – | – | – | – | COc1cc2c(cc1OC)[C@@H]1Cc3c(CO)c(OC)cc(OC)c3CN1CC2

Compound | inhibition [1] | inhibition [2] | Imax (D(1A) dopamine receptor [3]) | inhibition (D(2) dopamine receptor [4]) | IC50 (D(1A) dopamine receptor [5]) | IC50 (D(1A) dopamine receptor [6]) | Ki (D(1A) dopamine receptor [6]) | inhibition (D(1A) dopamine receptor [7]) | Ki [8] | IC50 (D(2) dopamine receptor [9]) | Ki (D(2) dopamine receptor [9]) | EC50 (D(1A) dopamine receptor [10]) | Emax (D(1A) dopamine receptor [11])
COc1cc2c(c(OC)c1)CN1CCc3cc(OC)c(O)cc3[C@@H]1C2 | 32.4% | 56.9% | 94.3% | 83.3% | 1380 nM | 4.86 nM | – | – | – | – | – | – | –
